In patent publication US12077503B2, “Substituted cyclic amides and their use as herbicides” (FMC CORPORATION, priority 2015, dated 2024):

Experiments:
Assay type in all cases: in vivo
[1] = test system: velvetleaf (Abutilon theophrasti); experiment: Test G Pre-Emergence Protocol; conditions: Abutilon theophrasti, pre-emergence, 312 h, evaluated after 13 days; for pest or weed control at 15.625 g/ha: 15.625 g ai/ha; for pest or weed control at 15.625 g/ha / pest or weed control at 250 g/ha: read-out: Velvetleaf damage rating (100=total damage to plant; 0=no damage to plant); for pest or weed control at 62.5 g/ha: 62.5 g ai/ha, 100=total damage to plant, 0=no damage to plant, read-out: plant damage rating, Velvetleaf; for pest or weed control at 250 g/ha: 250 g ai/ha
Outline: (§1)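 Herbicidal effect was rated 13 days post-application on a scale where 100 equals total damage. Spraying took place the day after sowing, using 15.625, 62.5 or 250 g/ha of compound in a 50:50 acetone/water solution with 0.5% Tween 20.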

[2] = test system: barnyardgrass (Echinochloa crus-galli); experiment: Test G Pre-Emergence Protocol; conditions: Echinochloa crus-galli, pre-emergence, 312 h, evaluated after 13 days; for pest or weed control at 15.625 g/ha: 15.625 g ai/ha, read-out: Barnyard grass damage rating (100=total damage to plant; 0=no damage to plant); for pest or weed control at 62.5 g/ha: 62.5 g ai/ha, 100=total damage to plant, 0=no damage to plant, read-out: plant damage rating, Barnyardgrass; for pest or weed control at 250 g/ha: 250 g ai/ha, read-out: Barnyardgrass damage rating (100=total damage to plant; 0=no damage to plant)
Outline: as §1

[3] = test system: giant foxtail (Setaria faberi); experiment: Test G Pre-Emergence Protocol; conditions: Setaria faberi, pre-emergence, 312 h, evaluated after 13 days; for pest or weed control at 15.625 g/ha: 15.625 g ai/ha; for pest or weed control at 15.625 g/ha / pest or weed control at 250 g/ha: read-out: Foxtail, Giant damage rating (100=total damage to plant; 0=no damage to plant); for pest or weed control at 62.5 g/ha: 62.5 g ai/ha, 100=total damage to plant, 0=no damage to plant, read-out: plant damage rating, Foxtail, Giant; for pest or weed control at 250 g/ha: 250 g ai/ha
Outline: as §1

corn (Zea mays) [4] = experiment: Test G Pre-Emergence Protocol; conditions: Zea mays, pre-emergence, 312 h, evaluated after 13 days; for plant injury at 15.625 g/ha: 15.625 g ai/ha; for plant injury at 15.625 g/ha / plant injury at 250 g/ha: read-out: Corn damage rating (100=total damage to plant; 0=no damage to plant); for plant injury at 62.5 g/ha: 62.5 g ai/ha, 100=total damage to plant, 0=no damage to plant, read-out: plant damage rating, Corn; for plant injury at 250 g/ha: 250 g ai/ha
Outline: as §1

[5] = test system: redroot pigweed (Amaranthus retroflexus); experiment: Test G Pre-Emergence Protocol; conditions: Amaranthus retroflexus, pre-emergence, 312 h, evaluated after 13 days; for pest or weed control at 15.625 g/ha: 15.625 g ai/ha; for pest or weed control at 15.625 g/ha / pest or weed control at 250 g/ha: read-out: Pigweed, Redroot damage rating (100=total damage to plant; 0=no damage to plant); for pest or weed control at 62.5 g/ha: 62.5 g ai/ha, 100=total damage to plant, 0=no damage to plant, read-out: plant damage rating, Pigweed, Redroot; for pest or weed control at 250 g/ha: 250 g ai/ha
Outline: as §1

[6] = test system: ivy-leaved morning glory (Ipomoea hederacea); experiment: Test G Pre-Emergence Protocol; conditions: Ipomoea, pre-emergence, 312 h, evaluated after 13 days; for pest or weed control at 15.625 g/ha: 15.625 g ai/ha, read-out: Morning-glory, Ivy-leaved damage rating (100=total damage to plant; 0=no damage to plant); for pest or weed control at 62.5 g/ha: 62.5 g ai/ha, 100=total damage to plant, 0=no damage to plant, read-out: plant damage rating, Morningglory, Ivy-leaved; for pest or weed control at 250 g/ha: 250 g ai/ha, read-out: Morningglory, Ivy-leaved damage rating (100=total damage to plant; 0=no damage to plant)
Outline: as §1

[7] = test system: velvetleaf (Abutilon theophrasti); experiment: Test G Post-Emergence Protocol; conditions: Abutilon theophrasti, post-emergence, 312 h; for pest or weed control at 15.625 g/ha: 15.625 g ai/ha, evaluated after 13 days (100=total damage to plant; 0=no damage to plant), read-out: Velvetleaf damage rating; for pest or weed control at 62.5 g/ha: 62.5 g ai/ha, read-out: Velvetleaf damage rating (100=total damage to plant; 0=no damage to plant); for pest or weed control at 62.5 g/ha / pest or weed control at 250 g/ha: evaluated after 13 days; for pest or weed control at 250 g/ha: 250 g ai/ha, read-out: damage to plant, Velvetleaf (100=total damage to plant; 0=no damage to plant)
Outline: (§2)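 Sow in soil; grow 8 d (24/16 °C, 14 h light, 65% humidity); spray 15.625/62.5/250 g/ha in acetone:water 50:50 + 0.5% Tween 20; grow on, water twice daily; score damage 0–100 at 13 d.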

[8] = test system: barnyardgrass (Echinochloa crus-galli); experiment: Test G Post-Emergence Protocol; conditions: Echinochloa crus-galli, post-emergence, 312 h; for pest or weed control at 15.625 g/ha: 15.625 g ai/ha, evaluated after 13 days (100=total damage to plant; 0=no damage to plant), read-out: Barnyardgrass damage rating; for pest or weed control at 62.5 g/ha: 62.5 g ai/ha, read-out: Barnyardgrass damage rating (100=total damage to plant; 0=no damage to plant); for pest or weed control at 62.5 g/ha / pest or weed control at 250 g/ha: evaluated after 13 days; for pest or weed control at 250 g/ha: 250 g ai/ha, read-out: damage to plant, Barnyardgrass (100=total damage to plant; 0=no damage to plant)
Outline: as §2

[9] = test system: giant foxtail (Setaria faberi); experiment: Test G Post-Emergence Protocol; conditions: Setaria faberi, post-emergence, 312 h; for pest or weed control at 15.625 g/ha: 15.625 g ai/ha, evaluated after 13 days (100=total damage to plant; 0=no damage to plant), read-out: Foxtail, Giant damage rating; for pest or weed control at 62.5 g/ha: 62.5 g ai/ha, read-out: Foxtail, Giant damage rating (100=total damage to plant; 0=no damage to plant); for pest or weed control at 62.5 g/ha / pest or weed control at 250 g/ha: evaluated after 13 days; for pest or weed control at 250 g/ha: 250 g ai/ha, read-out: damage to plant, Foxtail, Giant (100=total damage to plant; 0=no damage to plant)
Outline: as §2

corn (Zea mays) [10] = experiment: Test G Post-Emergence Protocol; conditions: Zea mays, post-emergence, 312 h; for plant injury at 15.625 g/ha: 15.625 g ai/ha, evaluated after 13 days (100=total damage to plant; 0=no damage to plant), read-out: Corn damage rating; for plant injury at 62.5 g/ha: 62.5 g ai/ha, read-out: Corn damage rating (100=total damage to plant; 0=no damage to plant); for plant injury at 62.5 g/ha / plant injury at 250 g/ha: evaluated after 13 days; for plant injury at 250 g/ha: 250 g ai/ha, read-out: damage to plant, Corn (100=total damage to plant; 0=no damage to plant)
Outline: as §2

[11] = test system: redroot pigweed (Amaranthus retroflexus); experiment: Test G Post-Emergence Protocol; conditions: Amaranthus retroflexus, post-emergence, 312 h; for pest or weed control at 15.625 g/ha: 15.625 g ai/ha, evaluated after 13 days (100=total damage to plant; 0=no damage to plant), read-out: Pigweed, Redroot damage rating; for pest or weed control at 62.5 g/ha: 62.5 g ai/ha, read-out: Pigweed, Redroot damage rating (100=total damage to plant; 0=no damage to plant); for pest or weed control at 62.5 g/ha / pest or weed control at 250 g/ha: evaluated after 13 days; for pest or weed control at 250 g/ha: 250 g ai/ha, read-out: damage to plant, Pigweed, Redroot (100=total damage to plant; 0=no damage to plant)
Outline: as §2

[12] = test system: ivy-leaved morning glory (Ipomoea hederacea); experiment: Test G Post-Emergence Protocol; conditions: Ipomoea, post-emergence, 312 h; for pest or weed control at 15.625 g/ha: 15.625 g ai/ha, evaluated after 13 days (100=total damage to plant; 0=no damage to plant), read-out: Morningglory, Ivy-leaved damage rating; for pest or weed control at 62.5 g/ha: 62.5 g ai/ha, read-out: Morningglory, Ivy-leaved damage rating (100=total damage to plant; 0=no damage to plant); for pest or weed control at 62.5 g/ha / pest or weed control at 250 g/ha: evaluated after 13 days; for pest or weed control at 250 g/ha: 250 g ai/ha, read-out: damage to plant, Morningglory, Ivy-leaved (100=total damage to plant; 0=no damage to plant)
Outline: as §2

Structure (SMILES) | pest or weed control at 15.625 g/ha [1] [%] | pest or weed control at 62.5 g/ha [1] [%] | pest or weed control at 250 g/ha [1] [%] | pest or weed control at 15.625 g/ha [2] [%] | pest or weed control at 62.5 g/ha [2] [%] | pest or weed control at 250 g/ha [2] [%] | pest or weed control at 15.625 g/ha [3] [%] | pest or weed control at 62.5 g/ha [3] [%] | pest or weed control at 250 g/ha [3] [%] | plant injury at 15.625 g/ha (corn (Zea mays) [4]) [%] | plant injury at 62.5 g/ha (corn (Zea mays) [4]) [%] | plant injury at 250 g/ha (corn (Zea mays) [4]) [%] | pest or weed control at 15.625 g/ha [5] [%] | pest or weed control at 62.5 g/ha [5] [%] | pest or weed control at 250 g/ha [5] [%] | pest or weed control at 15.625 g/ha [6] [%] | pest or weed control at 62.5 g/ha [6] [%] | pest or weed control at 250 g/ha [6] [%] | pest or weed control at 15.625 g/ha [7] [%] | pest or weed control at 62.5 g/ha [7] [%] | also measured
Cc1cccc(NC(=O)[C@H]2C(=O)N(C)C[C@@H]2c2ccc(C(F)(F)F)cc2)c1C#N (racemic) [Compound 1413] | 0 | 0 | 0 | 0 | 20 | 80 | 0 | 60 | 90 | 0 | 0 | 0 | 0 | 20 | 20 | 0 | 0 | 0 | 0 | 0 | pest or weed control at 250 g/ha [7]: 10%; pest or weed control at 15.625 g/ha [8]: 20%; pest or weed control at 62.5 g/ha [8]: 50%; pest or weed control at 250 g/ha [8]: 60%; pest or weed control at 15.625 g/ha [9]: 40%; pest or weed control at 62.5 g/ha [9]: 70%; pest or weed control at 250 g/ha [9]: 70%; plant injury at 15.625 g/ha (corn (Zea mays) [10]): 0%; plant injury at 62.5 g/ha (corn (Zea mays) [10]): 0%; plant injury at 250 g/ha (corn (Zea mays) [10]): 0%; pest or weed control at 15.625 g/ha [11]: 0%; pest or weed control at 62.5 g/ha [11]: 10%; pest or weed control at 250 g/ha [11]: 20%; pest or weed control at 15.625 g/ha [12]: 0%; pest or weed control at 62.5 g/ha [12]: 0%; pest or weed control at 250 g/ha [12]: 0%
CN1C[C@@H](c2ccc(C(F)(F)F)cc2)[C@H](C(=O)Nc2ccsc2)C1=O (racemic) [Compound 1611] | 0 | 0 | 0 | 0 | 0 | 0 | 0 | 0 | 0 | 0 | 0 | 0 | 0 | 0 | 0 | 0 | 0 | 0 | 0 | 0 | pest or weed control at 250 g/ha [7]: 0%; pest or weed control at 15.625 g/ha [8]: 0%; pest or weed control at 62.5 g/ha [8]: 0%; pest or weed control at 250 g/ha [8]: 0%; pest or weed control at 15.625 g/ha [9]: 0%; pest or weed control at 62.5 g/ha [9]: 0%; pest or weed control at 250 g/ha [9]: 0%; plant injury at 15.625 g/ha (corn (Zea mays) [10]): 0%; plant injury at 62.5 g/ha (corn (Zea mays) [10]): 0%; plant injury at 250 g/ha (corn (Zea mays) [10]): 0%; pest or weed control at 15.625 g/ha [11]: 0%; pest or weed control at 62.5 g/ha [11]: 0%; pest or weed control at 250 g/ha [11]: 0%; pest or weed control at 15.625 g/ha [12]: 0%; pest or weed control at 62.5 g/ha [12]: 0%; pest or weed control at 250 g/ha [12]: 0%
